# Source: PubChem BioAssay (NCI)
# Where “and” joins values, the source holds several entries; their conditions need not be identical. Equal values may be shown once.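 Each compound was tested at five concentrations against cells in 96-well plates for 48 hours. Here, GI50 denotes the concentration required for 50% inhibition of growth. TGI marks complete inhibition of growth.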
# Experiments:
# Assay in all cases: DTP human tumour cell line panel, 48 h
# [1] = test system: HOP-62 NSCLC
# [2] = test system: UACC-62 melanoma
# [3] = test system: M14 melanoma
# [4] = test system: DLD-1 colon
# [5] = test system: OVCAR-8 ovarian
# [6] = test system: DMS 114 small cell lung
# [7] = test system: HOP-18 NSCLC
# [8] = test system: 786-0 renal
# [9] = test system: LOX IMVI melanoma
# [10] = test system: MDA-MB-231 breast
smiles,measurement,setting,value
NC(=O)NC(=O)C1CCC(=O)N1S(=O)(=O)c1ccc(Cl)cc1 (stereo unspecified),TGI,[1],> 100 µM
same,TGI,[2],> 100 µM
same,TGI,[3],> 100 µM
same,TGI,[4],> 100 µM
same,TGI,[5],> 100 µM
same,TGI,[6],> 100 µM
same,TGI,[7],> 100 µM
same,TGI,[8],> 100 µM
CCCNc1ncnc2c1cnn2C,TGI,[1],> 100 µM
same,TGI,[2],> 100 µM
same,TGI,[3],> 100 µM
same,TGI,[5],> 100 µM
same,TGI,[6],> 100 µM
same,TGI,[7],> 100 µM
same,TGI,[8],> 100 µM
same,TGI,[9],> 100 µM
CCOC(=O)NC/C=C/CO,TGI,[1],> 100 µM
same,TGI,[2],> 100 µM
same,TGI,[3],> 100 µM
same,TGI,[4],> 100 µM
same,TGI,[5],> 100 µM
same,TGI,[6],> 100 µM
same,TGI,[7],> 100 µM
same,TGI,[8],> 100 µM
CCOC(=O)/C(=C/c1ccc[nH]1)P(=O)(OCC)OCC,TGI,[1],> 100 µM
same,TGI,[2],> 100 µM
same,TGI,[3],> 100 µM
same,TGI,[4],> 100 µM
same,TGI,[5],> 100 µM
same,TGI,[6],> 100 µM
same,TGI,[7],> 100 µM
same,TGI,[8],> 100 µM
same,TGI,[9],> 100 µM
CN(C)c1ccc(/C=C2\Cc3ccccc3C2=O)cc1Br,TGI,[1],> 100 µM
same,TGI,[2],> 100 µM
same,TGI,[3],> 100 µM
same,TGI,[4],> 100 µM
same,TGI,[5],> 100 µM
same,TGI,[6],> 100 µM
same,TGI,[8],> 100 µM
Cn1ncc2c(c1=O)Nc1ccccc1S2(=O)=O,TGI,[1],> 100 µM
same,TGI,[2],> 100 µM
same,TGI,[3],> 100 µM
same,TGI,[4],> 100 µM
same,TGI,[5],> 100 µM
same,TGI,[6],40.9 µM
same,TGI,[7],> 100 µM
same,TGI,[8],75.3 µM
same,TGI,[9],> 100 µM
Cc1nc(-c2cccnc2)sc1C(=O)/C=C/c1ccc(Cl)cc1Cl,TGI,[1],> 100 µM
same,TGI,[2],> 100 µM
same,TGI,[4],> 100 µM
same,TGI,[5],> 100 µM
same,TGI,[6],> 100 µM
same,TGI,[7],> 100 µM
same,TGI,[8],> 100 µM
same,TGI,[9],> 100 µM
COc1cccc2c(Nc3ccc(C(=O)NCCN4CCNCC4)cc3)cc(-c3ccccc3)nc12,GI50,[1],> 100 µM
same,TGI,[1],> 100 µM
same,GI50,[2],65.6 µM
same,TGI,[2],> 100 µM
same,GI50,[3],20.1 µM
same,TGI,[3],38.7 µM
same,GI50,[5],39.2 µM
same,TGI,[5],> 100 µM
same,GI50,[10],19.9 µM
same,TGI,[10],> 100 µM
same,GI50,[8],51.1 µM
same,TGI,[8],> 100 µM
same,GI50,[9],20.6 µM
same,TGI,[9],45.9 µM
CS(=O)(=O)Nc1ccc(Nc2c3ccccc3nc3cc(Cl)ccc23)cc1,GI50,[1],0.958 µM
same,TGI,[1],18 µM
same,GI50,[2],0.988 µM
same,TGI,[2],12.9 µM
same,GI50,[3],0.812 µM
same,TGI,[3],15.1 µM
same,GI50,[5],1.76 µM
same,TGI,[5],15.6 µM
same,GI50,[10],4.56 µM
same,TGI,[10],19.8 µM
same,GI50,[8],0.857 µM
same,TGI,[8],15.6 µM
same,GI50,[9],0.406 µM
same,TGI,[9],4.79 µM
NC1CC(n2ccc(=O)[nH]c2=O)OC1C(O)CO (stereo unspecified),TGI,[1],> 100 µM
same,TGI,[2],> 100 µM
same,TGI,[3],> 100 µM
same,TGI,[4],> 100 µM
same,TGI,[5],> 100 µM
same,TGI,[6],> 100 µM
same,TGI,[7],> 100 µM
same,TGI,[8],> 100 µM
same,TGI,[9],> 100 µM
Oc1ccc(/C=N/Nc2nnc(N/N=C/c3ccc(O)cc3O)c3ccccc23)c(O)c1,GI50,[1],0.509 µM
same,TGI,[1],0.793 µM and 2.02 µM
same,GI50,[2],0.318 µM
same,TGI,[2],0.602 µM and 1.58 µM
same,GI50,[3],0.358 µM
same,TGI,[3],1.53 µM
same,GI50,[5],0.494 µM
same,GI50,[10],1.35 µM
same,TGI,[10],> 46.2 µM
same,GI50,[8],0.593 µM
same,TGI,[8],2.46 µM
same,GI50,[9],0.277 µM
same,TGI,[9],0.871 µM and 1.5 µM
ClCc1ccc(Cn2cnc3nc(Cl)nc(Cl)c32)cc1,GI50,[1],1.98 µM
same,TGI,[1],3.74 µM
same,GI50,[2],0.974 µM
same,TGI,[2],2.54 µM
same,GI50,[3],1.31 µM
same,TGI,[3],2.83 µM
same,GI50,[5],1.84 µM
same,TGI,[5],3.66 µM
same,GI50,[10],0.444 µM
same,TGI,[10],0.926 µM
same,GI50,[8],0.417 µM
same,TGI,[8],0.89 µM
same,GI50,[9],0.487 µM
same,TGI,[9],1.23 µM
COC(=O)CCSC(=O)Nc1ccccc1Cl,TGI,[1],> 100 µM
same,TGI,[2],> 100 µM
same,TGI,[3],> 100 µM
same,TGI,[4],> 100 µM
same,TGI,[5],> 100 µM
same,TGI,[6],> 100 µM
same,TGI,[8],> 100 µM
same,TGI,[9],> 100 µM
CC(C)C12CCC3(CCC4C(C)(C(=O)O)CCCC4(C)C3C1)C(CN)C2 (stereo unspecified),TGI,[1],> 100 µM
same,TGI,[2],> 100 µM
same,TGI,[3],> 100 µM
same,TGI,[5],> 100 µM
same,TGI,[10],> 100 µM
same,TGI,[8],54.4 µM
same,TGI,[9],34.7 µM
Clc1ccc(N=CNc2ccc(-c3nc4ccccc4[nH]3)cc2)cc1,GI50,[1],> 100 µM
same,TGI,[1],> 100 µM
same,GI50,[2],0.386 µM
same,TGI,[2],> 100 µM
same,GI50,[3],> 100 µM
same,TGI,[3],> 100 µM
same,GI50,[5],64.1 µM
same,TGI,[5],> 100 µM
same,GI50,[10],> 100 µM
same,TGI,[10],> 100 µM
same,GI50,[8],68.1 µM
same,TGI,[8],> 100 µM
same,GI50,[9],1.37 µM
same,TGI,[9],24.8 µM
CCCCCCCCCCCCCCCC(=O)NCC(OCC)OCC,TGI,[1],> 100 µM
same,TGI,[2],> 100 µM
same,TGI,[3],> 100 µM
same,TGI,[4],> 100 µM
same,TGI,[5],> 100 µM
same,TGI,[6],> 100 µM
same,TGI,[7],> 100 µM
same,TGI,[8],> 100 µM
same,TGI,[9],> 100 µM
Cc1cc2c(SCc3ccccc3Cl)nc(N)nc2nc1C,TGI,[1],> 100 µM
same,TGI,[2],> 100 µM
same,TGI,[3],> 100 µM
same,TGI,[5],> 100 µM
same,TGI,[10],> 100 µM
same,TGI,[8],> 100 µM
same,TGI,[9],> 100 µM
Cc1ccc(S(=O)(=O)NCc2cccc([N+](=O)[O-])c2)cc1,TGI,[1],> 100 µM
same,TGI,[2],> 100 µM
same,TGI,[3],> 100 µM
same,TGI,[5],> 100 µM
same,TGI,[10],> 100 µM
same,TGI,[8],> 100 µM
same,TGI,[9],> 100 µM
OCCn1c(-c2ccncc2)c(-c2ccc(F)cc2)c2ncccc21,GI50,[1],> 25 µM
same,TGI,[1],> 25 µM
same,GI50,[2],> 25 µM
same,TGI,[2],> 25 µM
same,GI50,[3],> 25 µM
same,TGI,[3],> 25 µM
same,GI50,[5],> 25 µM
same,TGI,[5],> 25 µM
same,GI50,[10],> 25 µM
same,TGI,[10],> 25 µM
same,GI50,[8],> 25 µM
same,TGI,[8],> 25 µM
same,GI50,[9],> 25 µM
same,TGI,[9],> 25 µM
O=C(Nc1cccc(C(F)(F)F)c1)Nc1cc(S(=O)(=O)NC2CC2)ccc1-c1ccsc1,GI50,[1],5.11 µM
same,TGI,[1],18.5 µM
same,GI50,[2],2.93 µM
same,TGI,[2],13.8 µM
same,GI50,[3],4.32 µM
same,TGI,[3],18.4 µM
same,GI50,[5],4.07 µM
same,TGI,[5],18.1 µM
same,GI50,[10],3.43 µM
same,TGI,[10],14.8 µM
same,GI50,[8],6.1 µM
same,TGI,[8],20.9 µM
same,GI50,[9],4.5 µM
same,TGI,[9],16.9 µM
